Measurements as given in patent US11950617B2, “Remediation of toxins in biorefinery process streams” (priority 2017, dated 2024).

Columns and labels:
[1] = Laboratory treatment of corn ethanol syrup with bisulfite in a Parr 4560 reactor; DON measured by NEOGEN VERATOX for DON 2/3 kit
Description: Encouraged by these initial test results, further testing was performed utilizing a design of experiments to determine an equation modeling the effect of time, temperature, and SBS in the treatment of syrup. Syrup from a corn ethanol biorefinery was obtained and processed in the laboratory. All thermal treatments were performed utilizing a Parr 4560 reactor and a combined total of 70 g of syrup and SBS per reaction. Reaction conditions were from 85° C. to 115° C.; for 2 to 6 hours; and 0 to 0.05 g sodium bisulfite per dry gram syrup. The results from this study indicated a correlation between the SBS loading and the reduction in syrup DON. The model predicts a greater than 85% reduction in syrup DON is likely if treatment in a commercial process syrup tank is utilized. It was calculated that at a plant that is currently producing DDGS with 14.5 ppm DON with a 95% reduction in syrup DON would produce DDGS with 4.6 ppm DON.
(§1) Syrup from a corn ethanol biorefinery was obtained and processed in the laboratory. Treatment was performed utilizing a Parr 4560 reactor and a combined total of 70 g of syrup and SBS per reaction. The reaction condition was carried out at 50° C. for 120 minutes and varying amounts of sodium bisulfite per dry gram syrup. The DON was measured by NEOGEN™ VERATOX™ for DON 2/3 kit.
as §1, with “85°” for “50°”, “30” for “120”, “to 180 minutes using 0.048 grams” for “and varying amounts of”
Syrup from a corn ethanol biorefinery was obtained and processed in the laboratory using a Parr 4560 reactor and combined with either 0.048 grams of SBS or ammonium bisulfite per dry gram of syrup. Ammonium bisulfite was a 65% aqueous solution of 95% ammonium bisulfite and 5% potassium bisulfite. The doses of the two reagents used were molar equivalent bisulfite doses. The reaction condition was carried out at 85° C. for 30, 60 and 90 minutes.

[2] = DON analysis of DDGS sources and mixed diets of the pig trial; details: treated vs untreated DDGS
Text: A treated mycotoxin in which the DON levels in DON-contaminated DDGS were reduced by the method described in Example 5 (1.5 gallons per minute of a 38% aqueous solution of SBS was supplied continuously into the feed line of the syrup tank) and samples of dried DDGS were collected, analyzed and tested for its effect on pig growth.
A total of 247 growing pigs (55.3±4.6 lb.) were housed at a wean-to-finish facility, randomly allotted to 18 pens (13-14 pigs/pen) containing one 3-hole feeder 2 free-access nipple drinkers, and assigned to one of 3 experimental diets: control, DONDDGS, and treated-DDGS. All experimental diets were corn/soybean meal based containing 30% DDGS (low DON, DON contaminated, and treated DON DDGS, respectively; Table 1).
All diets met or exceeded nutrient requirements for growing pigs based on NRC (2012) and provided ad libitum. Experimental diets were fed for 21 days. Samples of the DDGS and corn used in the diets were analyzed for DON. Samples of the mixed diets were collected at day 0 and 21 and analyzed for proximate analysis and DON.

O=S([O-])O.[Na+] [SBS, sodium bisulfite]
DON in the treated syrup as SBS dose increased (FIG. 4) ([1]; 50° C., 120 minutes, varying amounts of sodium bisulfite per dry gram syrup): reduced
DON in the treated syrup (FIG. 5) ([1]; 85° C., 30 minutes dwell time, 0.048 grams sodium bisulfite per dry gram syrup): less than 1 ppm
reduction in syrup DON predicted by the model ([1]; design-of-experiments model (time, temperature, SBS), treatment in a commercial process syrup tank): greater than 85%
DON reduction in the syrup stream ([1]; syrup treated with SBS at process temperatures for extended time periods): greater than 85%
reduction of DON content in DON-DDGS [2]: 37%
